From patent publication US9433683B2, “Reversible pegylated drugs” (Yeda Research and Development Co., Ltd., priority 2003, dated 2016)
Values joined by “and” are separate entries in the source; they are usually repeats but may differ in a detail not shown here. Equal entries are not always repeated.

What was measured:
[1] = target: T1, hGH-receptor preparation extracted from rabbit liver plasma membranes (Oryctolagus cuniculus, UniProt P19941); test: 125I-hGH displacement from hGH-receptor preparation; format: binding
T1 construct: enriched hGH-receptor preparation extracted from rabbit liver plasma membranes; from tissue; host or cells: rabbit liver plasma membranes
T1 sequence (P19941 19-638): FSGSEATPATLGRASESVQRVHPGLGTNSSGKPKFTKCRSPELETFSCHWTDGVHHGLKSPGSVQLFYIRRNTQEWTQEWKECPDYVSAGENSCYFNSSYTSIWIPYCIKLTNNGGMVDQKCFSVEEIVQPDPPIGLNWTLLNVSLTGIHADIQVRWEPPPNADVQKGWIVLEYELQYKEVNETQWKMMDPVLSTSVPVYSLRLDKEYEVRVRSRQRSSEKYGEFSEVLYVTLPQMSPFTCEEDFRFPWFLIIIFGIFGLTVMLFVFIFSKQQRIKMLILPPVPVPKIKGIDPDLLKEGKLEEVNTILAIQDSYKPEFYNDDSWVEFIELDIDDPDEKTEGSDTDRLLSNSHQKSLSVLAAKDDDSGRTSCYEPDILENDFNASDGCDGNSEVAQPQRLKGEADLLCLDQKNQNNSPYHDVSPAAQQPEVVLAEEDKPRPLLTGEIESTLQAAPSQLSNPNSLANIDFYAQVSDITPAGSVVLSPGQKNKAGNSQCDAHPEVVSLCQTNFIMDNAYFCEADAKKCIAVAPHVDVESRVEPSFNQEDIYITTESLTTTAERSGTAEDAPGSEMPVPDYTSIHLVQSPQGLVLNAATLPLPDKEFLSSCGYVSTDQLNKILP
Procedure: PEG40000-FMS-hGH (1 mg/ml) was incubated in 0.1 M phosphate buffer, 0.6% BSA and −2 mM NaN3 at 37° C. Aliquots were withdrawn at the indicated time points, and analyzed for their potencies to displace ^125I-hGH from enriched hGH-receptor preparation extracted from rabbit liver plasma membranes. Native hGH displaces ^125I-hGH in this assay half maximally at a concentration of 0.3±0.03 nM. […] PEG40000FMS-hGH (1 mg protein) was incubated as described above. At the indicated time points, 0.1 ml aliquots withdrawn and subjected to analytical HPLC analysis.
The hGH displacement assay was performed as previously described (Tsushima et al., 1980).

[2] = Clark et al., 1996; cited from earlier work
CD1-mice = test: Glucose-lowering potency of insulin and PEG5000-Fmoc-insulin in mice (SC or IP); format: in vivo, mouse
Procedure: Mice received SC, either native insulin (Zn^2+-free, 1.72 nmole/mouse in 0.2 ml PBS buffer) or (PEG5000-Fmoc)1-insulin (17.2 nmole/mouse, in 0.2 ml PBS buffer). Blood glucose levels were determined at the indicated time points. Each point is the arithmetic mean±SEM of blood glucose of five mice.
Groups of mice received IP either insulin (Zn^2+-free, 0.345 nmol/mouse, in 0.2 ml PBS buffer) or (PEG5000-Fmoc)1-insulin (3.45 nmoles/mouse, in 0.2 ml PBS buffer). Blood glucose levels were determined at the indicated time points. Each point in the figure is the arithmetic mean±SEM of five mice.
(iv) Glucose-lowering potency of insulin and its derivatives was determined in mice following administration under the conditions specified in each experiment. […] Each group consisted of 4-5 mice. Data are presented as means±SEM.
Native insulin (Zn^2+ free, 1.72 nmol/mouse) or (PEG5000-Fmoc)1-insulin (17.2 nmoles/mouse) were administered subcutaneously to groups of mice (n=5 in each group), and the glucose lowering profiles were determined. Native insulin reduced blood glucose level maximally at 30 min.
In order to differentiate between these factors, the subcutaneous compartment was bypassed by administering native insulin (Zn^2+-free, 0.345 nmoles/mouse, in 0.2 ml PBS buffer) or (PEG5000-Fmoc)1-insulin (3.45 nmoles/mouse, in 0.2 ml PBS buffer) intraperitoneally. The glucose lowering capacities were then monitored. Blood glucose levels were determined at different time points.

rat adipocytes [3] = test: Lipogenesis ([U-14C]glucose incorporation into lipids) in rat adipocytes; format: cell-based
Procedure: (4A) Insulin (17.24 nmoles in 0.2 ml 0.01 M NaHCO3) reacted with increasing concentrations of PEG5000-Fmoc-OSu at a molar excess over the protein as indicated in the figure for 2 hours at 25° C. The number of free amino groups that remained unmodified were quantitated with TNBS.
PEG5000-Fmoc-insulin conjugates containing one and two moles of PEG5000-Fmoc/mole insulin were incubated at a concentration of 0.172 μM in 0.1 M NaHCO3-0.5% bovine serum albumin and 1 mM NaN3 at 37° C. At the indicated time points aliquots were analyzed (in several concentrations for each aliquot) for their lipogenic potencies in rat adipocytes.
Results are expressed as a percentage of maximal stimulation.
(ii) Rat adipocytes were prepared from fat pads of male Wistar rats (100-200 gr) by collagenase digestion as described (Rodbell, 1964). The fat pads were cut into small pieces with scissors and suspended in 3 ml of KRB buffer containing NaCl, 110 mM; NaHCO3, 25 mM; Kcl, 5 mM; KH2PO4, 1.2 mM; CaCl2, 1.3 mM; MgSO4, 1.3 mM; and 0.7% BSA (pH 7.4). […] Five ml of buffer was then added, and the cells were passed through a mesh screen. The cells were then allowed to stand for several minutes in a 15 ml plastic test tube at room temperature, floating, and the buffer underneath was removed. This procedure (suspension, floating, and removal of buffer underneath) was repeated three times.
(iii) Lipogenesis (incorporation of [U-^14C] glucose into the lipids of intact adipocytes). The incorporation of [U-^14C] glucose into adipose tissue in rat adipocytes was performed as described (Moody et al., 1974). Adipocyte suspensions (3×10^5 cells/ml) were divided into plastic vials (0.5 ml per vial) and incubated for 60 min at 37° C. under an atmosphere of carbogen with 0.2 mM [U-^14C]glucose, in either the absence or presence of insulin. Lipogenesis was terminated by adding toluene-based scintillation fluid (1.0 ml per vial) and the radioactivity in extracted lipids was counted.
Rat adipocytes were prepared from the fat pads of male Wistar rats (100-200 g) by collagenase digestion (Rodbel, 1964). Lipogenesis (during which [U^14-C] glucose was incorporated into the lipids) was performed using the procedure of Moody et al (Moody et al., 1974). Diabetes was induced by a single intravenous injection of freshly prepared streptozocin (STZ) solution (55 mg/kg body wt) as previously described (Meyerovitch et al., 1987). Rats were maintained at 24° C. under conditions of controlled lighting and were fed ad libitum. Blood samples for the analysis of blood glucose were taken from the tail veins and measured with a glucose analyzer (Beckman Instruments, Fullerton, Calif.) by the glucose oxidase method. Groups consisted of five Wistar rats weighing 170±5 g. Data are presented as means±SE.

C57BL/6J male mice = test: Food intake (re-feeding after 24 h starvation) in mice; format: in vivo, mouse
Procedure: Drinking water was provided at all times.
Results are average of four identical experiments.
Drinking water was provided at all times. […] A minimum interval of 1 h was introduced between injection and re-feeding to avoid a stress-dependent decrease in food intake. The amount of food consumed per group was determined at the end of the feeding period. Remaining chow was weighed after the 2 h re-feeding period and the cumulative food intake per 10 mice was calculated. Values of food intake in replicate experiments were normalized according to the saline controls. Results are expressed as food intake per 10 mice±SD from 2-5 replicate experiments.
(vi) Statistical analysis. The significance of differences in food consumption was determined by the Student's t-test, using the total weight of food consumed by each group of 10 mice as a single value. A saline-injected group of 10 mice was included in each experiment as a control. A two-tailed, paired t-test was performed between the control and treated groups.

[4] = Hydrolysis of conjugates / release of parent drug upon incubation at pH 8.5, 37° C. (HPLC or TNBS)
[5] = system: Escherichia coli (E. coli strain N-4156-W.T); test: Inhibition of E. coli replication (antibacterial potency of gentamicin and PEG-Fmoc-gentamicin); format: cell-based
[6] = human, in vivo; cited from earlier work
rat adipocytes [7] = test: Lipogenesis ([U-14C]glucose incorporation into lipids) in rat adipocytes; format: cell-based; conditions: Example 34 assay, 2 h at 37° C.; HSA conjugates taken as 24±3 μg insulin per mg HSA
[8] = Pharmacokinetic profile of SC 125I-insulin and 125I-HSA in rats; conditions: 10 μg 125I-labeled protein
Procedure: Blood aliquots obtained from the tail vein at the indicated time points were spotted onto Whatman #3 paper and weighed immediately. Each paper was washed with 10% TCA and measured for its radioactive content. […] Each point in the figure represents the arithmetic mean of 5 rats±SE.
Rats were maintained at 24° C. under conditions of controlled lighting and were fed ad libitum. […] Data are presented as means±SE.
For comparison, we subcutaneously administered ^125I-insulin under similar experimental conditions.

[9] = SC 5 nmol/mouse, 18 h prior to re-feeding

Substance: (PEG40-FMS)2-hGH: two PEG40-FMS moieties linked to hGH
- native-receptor binding capacity following 50 hours of incubation ([1]; 37° C., normal rat serum or pH 8.5): 70-80%

Substance: (PEG5000)5 hGH: hGH with about five PEG5000 chains linked irreversibly (Clark et al., 1996)
- biological potency of hGH [2]: less than 0.1%

Substance: (PEG5000-Fmoc)1-insulin: about one mol PEG-Fmoc per mol insulin
- return to normoglycemia, slower than native hormone (CD1-mice; IP administration): 3.4 fold
- time of maximal fall of circulating glucose (CD1-mice; IP, 3.45 nmoles/mouse): 1.0 h
- time of return to normal glucose values after administration (CD1-mice; IP, 3.45 nmoles/mouse): 6 h
- additional time maintained at the low glucose level (CD1-mice; SC, 17.2 nmoles/mouse): 4 h
- time of maximal lowering of circulating glucose (CD1-mice; SC, 17.2 nmoles/mouse): 4 h
- half time of return to normoglycemic values relative to native insulin (CD1-mice; single SC administration): 6.7 fold
- lipogenic activity, % of native potency (rat adipocytes [3]; after 2 hours at pH 8.5, 37° C.): 16%
- lipogenic activity, % of native potency (rat adipocytes [3]; after 4 hours at pH 8.5, 37° C.): 24%
- lipogenic activity, % of native potency (rat adipocytes [3]; after 10 hours at pH 8.5, 37° C.): 30%
- lipogenic activity, % of native potency (rat adipocytes [3]; after 17 hours at pH 8.5, 37° C.): 36%
- lipogenic activity, % of native potency (rat adipocytes [3]; after 80 hours at pH 8.5, 37° C.): 95%
- biological (lipogenic) potency of the native hormone (rat adipocytes [3]; prior to hydrolysis / time 0): 7±1%

Substance: (PEG5000-Fmoc)2-insulin: insulin conjugate containing two moles of PEG5000-Fmoc/mole insulin
- lipogenic activity, % of native insulin potency (rat adipocytes [3]; after 30±2 hours at pH 8.5, 37° C.): 45±3%
- lipogenic activity, % of native insulin potency (rat adipocytes [3]; after 80±4 hours at pH 8.5, 37° C.): 90%
- lag period before regeneration of lipogenic potency (rat adipocytes [3]; incubation at pH 8.5, 37° C.): 10 ± 1 h and 10 h

Substance: Nα-Nε-diacetyl-PYY3-36: PYY3-36 acetylated at its two amino groups [reference compound]
- food consumed in 2 h re-feeding (C57BL/6J male mice; 20 μg per mouse): 10.54±0.08 g chow per 10 mice

Substance: PEG40-FMS-PYY3-36: 1:1 conjugate of PEG40-SH and MAL-FMS-PYY3-36
- food consumed in 2 h re-feeding (C57BL/6J male mice; [9]): 4.7±0.14 g chow per 10 mice
- reduction in food intake compared with saline (C57BL/6J male mice; [9]): 52%
- reduction in food intake (C57BL/6J male mice; SC 5 nmol/mouse, 24 h prior to re-feeding): 27%
- half-life of satiety effect, longer than unmodified PYY3-36 (C57BL/6J male mice; mouse, in vivo): 8 fold
- cumulative amount of free PYY3-36, % of input conjugate ([4]; after 40 h): 79%

Substance: PEG40-FMS-hGH
- k (h^−1), slope of ln [PEG-FMS conjugate] against time [4]: 0.059 h^−1
- receptor binding affinity ([1]; in vitro, prior to incubation): no receptor binding affinity

Substance: PEG40-PYY3-36: Irreversibly pegylated PYY3-36, one PEG40 residue per PYY3-36 [reference compound]
- biological activity of irreversibly pegylated PYY3-36 on food intake (C57BL/6J male mice; SC 5 nmol/mouse, 1 h prior to re-feeding): No significant reduction in food intake

Substance: PEG5000-Fmoc-insulin: insulin preparations with 0.3 to 2.2 mol PEG5000-Fmoc incorporated per mol insulin
- biological (lipogenic) potency relative to native insulin (rat adipocytes [3]; 0.3 mol PEG5000-Fmoc/mol insulin incorporated): 87±4%
- biological (lipogenic) potency relative to native insulin (rat adipocytes [3]; 0.6 mol PEG5000-Fmoc/mol insulin incorporated): 60±3%
- biological (lipogenic) potency relative to native insulin (rat adipocytes [3]; 1.1 mol PEG5000-Fmoc/mol insulin incorporated): 8±1%
- biological (lipogenic) potency relative to native insulin (rat adipocytes [3]; 1.5 mol PEG5000-Fmoc/mol insulin incorporated): 4±0.3%
- biological (lipogenic) potency relative to native insulin (rat adipocytes [3]; 2.2 mol PEG5000-Fmoc/mol insulin incorporated): less than 1%

Substance: gentamicin
- IC50 [5]: 220 ± 20 nM
- concentration inhibiting E. coli replication half-maximally [5]: 0.1 µg/mL

Substance: hGH: Recombinant hGH
- t1/2 of clearance from the circulatory system [6]: 0.333 to 0.5 h

Substance: insulin: Human (Zn2+-free) insulin [reference compound]
- time of maximal fall of circulating glucose (CD1-mice; IP, 0.345 nmoles/mouse): 0.25 h
- time of maximal reduction of blood glucose level (CD1-mice; SC, 1.72 nmol/mouse): 30 min
- ED50 in lipogenic assay (rat adipocytes [7]): 0.3 ± 0.01 ng/mL and 0.3 ng/mL
- t1/2 of decline in blood [8]: 9.0 ± 1.0 h
- time of peak value in blood after administration [8]: 1 ± 0.1 h
- stimulation of lipogenesis above basal levels (rat adipocytes [3]): 4-6 times above basal and 4-5 times above basal
- ED50 for stimulation of lipogenesis (rat adipocytes [3]; rat adipocytes, Example 28 assay): 0.2 ± 0.02 ng/mL and 0.15 ± 0.03 ng/mL
